Reference: US20240383908A1, “SYNTHESIS AND APPLICATION OF PHOSPHATASE DEGRADER” (HINOVA PHARMACEUTICALS INC., priority 2021, published 2024)

Molecular target: T1, SHP2 protein (Homo sapiens, UniProt Q06124)
T1 sequence (Q06124 1-593): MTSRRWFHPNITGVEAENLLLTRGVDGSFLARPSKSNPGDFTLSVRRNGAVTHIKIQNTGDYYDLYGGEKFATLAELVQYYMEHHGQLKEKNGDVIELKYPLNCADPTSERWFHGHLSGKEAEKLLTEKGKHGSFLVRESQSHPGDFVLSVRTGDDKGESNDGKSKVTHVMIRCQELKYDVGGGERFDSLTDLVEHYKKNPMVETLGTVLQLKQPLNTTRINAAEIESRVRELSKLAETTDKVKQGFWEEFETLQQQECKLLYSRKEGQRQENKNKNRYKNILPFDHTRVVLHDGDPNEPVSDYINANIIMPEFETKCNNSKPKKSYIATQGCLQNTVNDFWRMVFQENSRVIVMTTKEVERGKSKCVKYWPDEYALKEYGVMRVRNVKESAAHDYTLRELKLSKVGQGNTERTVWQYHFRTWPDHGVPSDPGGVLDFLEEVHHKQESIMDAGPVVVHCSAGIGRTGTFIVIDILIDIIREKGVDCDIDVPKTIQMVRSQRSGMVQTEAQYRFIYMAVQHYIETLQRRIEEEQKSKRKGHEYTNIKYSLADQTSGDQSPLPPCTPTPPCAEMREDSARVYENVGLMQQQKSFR
Test: Degradation activity on SHP2 protein in MV-411 cells (Western blot, DC50)
Type: cell-based
Design: endogenous in cells
Conditions: MV411 cells, 24 hours, read-out: Degradation activity for differenct cell lines MV411 (DC50)
In short: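 Western blot of SHP2 (GAPDH loading control, 30 μg protein/lane) in lysates of MV-411 cells exposed 24 h to final compound concentrations of 100, 10, 3, 1, 0.3 and 0.1 nM (0.1% DMSO). Degradation relative to DMSO set at 100%; DC50 derived by curve fitting.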

| DC50 [nM] | SMILES |
| --- | --- |
| < 100 | Cc1ncsc1-c1ccc([C@H](C)NC(=O)[C@@H]2C[C@@H](O)CN2C(=O)[C@@H](NC(=O)c2cnc(N3CCC4(CN(CCCCC(=O)Nc5cccc(Sc6cnc(N7CCC(C)(N)CC7)cn6)c5)C4)C3)nc2)C(C)(C)C)cc1 [Compound 88] |
| < 100 | CC1(N)CCN(c2cnc(Sc3cccc(NC(=O)CCCCN4CC5(CCN(c6ncc(C(=O)NCc7ccc8c(c7)CN(C7CCC(=O)NC7=O)C8=O)cn6)C5)C4)c3)cn2)CC1 (stereo not shown) [Compound 89] |
| > 1000 | CC1(N)CCN(c2cnc(Sc3cccc(NC(=O)CCCCCCCOC4CCN(c5ncc(C(=O)Nc6cccc7c6CN(C6CCC(=O)NC6=O)C7=O)cn5)CC4)c3)cn2)CC1 (stereo not shown) [Compound 92] |
| < 100 | CC1(N)CCN(c2cnc(Sc3cccc(NC(=O)CCCCCCCOC4CCN(c5ncc(C(=O)Nc6ccc7c(c6)CN(C6CCC(=O)NC6=O)C7=O)cn5)CC4)c3)cn2)CC1 (stereo not shown) [Compound 93] |
| > 1000 | CC1(N)CCN(c2cnc(Sc3cccc(NC(=O)CCCCCCCOC4CCN(c5ncc(C(=O)Nc6ccc7c(c6)C(=O)N(C6CCC(=O)NC6=O)C7)cn5)CC4)c3)cn2)CC1 (stereo not shown) [Compound 94] |
| < 100 | CC1(N)CCN(c2cnc(Sc3cccc(NC(=O)CCCCCCCN4CC5CN(Cc6ccc(COc7cccc8c7CN(C7CCC(=O)NC7=O)C8=O)cc6)CC5C4)c3)cn2)CC1 (stereo not shown) [Compound 95] |
| > 1000 | CC1(N)CCN(c2cnc(Sc3cccc(NC(=O)CCN4CC5(CCN(c6ccc(C(=O)NCc7ccc8c(c7)CN(C7CCC(=O)NC7=O)C8=O)nn6)C5)C4)c3)cn2)CC1 (stereo not shown) [Compound 97] |
| < 100 | Cc1ncsc1-c1ccc([C@H](C)NC(=O)[C@@H]2C[C@@H](O)CN2C(=O)[C@@H](NC(=O)c2ccc(N3CC4CN(CCCCCCCC(=O)Nc5cccc(Sc6cnc(N7CCC(C)(N)CC7)cn6)c5)CC4C3)nn2)C(C)(C)C)cc1 (stereo partly shown) [Compound 99] |
| < 100 | Cc1ncsc1-c1ccc([C@H](C)NC(=O)[C@@H]2C[C@@H](O)CN2C(=O)[C@@H](NC(=O)c2ccc(N3CC[C@H](OCCCCCCCC(=O)Nc4cccc(Sc5cnc(N6CCC(C)(N)CC6)cn5)c4)C3)nn2)C(C)(C)C)cc1 [Compound 101] |
| < 100 | Cc1ncsc1-c1ccc([C@H](C)NC(=O)[C@@H]2C[C@@H](O)CN2C(=O)[C@@H](NC(=O)c2cnc(N3CC[C@@H](OCCCCCCCC(=O)Nc4cccc(Sc5cnc(N6CCC(C)(N)CC6)cn5)c4)C3)nc2)C(C)(C)C)cc1 [Compound 103] |
| < 100 | CC1(N)CCN(c2cnc(Sc3cccc(NC(=O)CCCCCCCN4CC5(CCN(c6ccc(C(=O)NCc7ccc8c(c7)CN(C7CCC(=O)NC7=O)C8=O)nn6)C5)C4)c3)cn2)CC1 (stereo not shown) [Compound 106] |
| < 100 | C[C@@H]1OCC2(CCN(c3cnc(Sc4cccc(NC(=O)CCN5CC6(CCN(c7ccc(C(=O)NCc8ccc9c(c8)CN(C8CCC(=O)NC8=O)C9=O)nn7)C6)C5)c4)cn3)CC2)[C@@H]1N (stereo partly shown) [Compound 108] |
| < 100 | C[C@@H]1OCC2(CCN(c3cnc(Sc4cccc(NC(=O)CCCCN5CC6(CCN(c7ccc(C(=O)NCc8ccc9c(c8)CN(C8CCC(=O)NC8=O)C9=O)nn7)C6)C5)c4)cn3)CC2)[C@@H]1N (stereo partly shown) [Compound 109] |
| > 1000 | C[C@@H]1OCC2(CCN(c3cnc(Sc4cccc(NC(=O)CCCCCCCN5CC6(CCN(Cc7ccc(COc8cccc9c8CN(C8CCC(=O)NC8=O)C9=O)cc7)C6)C5)c4)cn3)CC2)[C@@H]1N (stereo partly shown) [Compound 113] |
| > 1000 | CC1(N)CCN(c2cnc(Sc3cccc(NC(=O)CCCCCCCN4CC5(C4)CN(C(=O)/C=C/C(=O)NCc4ccc6c(c4)CN(C4CCC(=O)NC4=O)C6=O)C5)c3)cn2)CC1 (stereo not shown) [Compound 114] |
| > 1000 | Cc1ncsc1-c1ccc([C@H](C)NC(=O)[C@@H]2C[C@@H](O)CN2C(=O)[C@@H](NC(=O)/C=C/C(=O)N2CC3(CN(CCCCCCCC(=O)Nc4cccc(Sc5cnc(N6CCC(C)(N)CC6)cn5)c4)C3)C2)C(C)(C)C)cc1 [Compound 115] |
| > 1000 | Cc1ncsc1-c1ccc([C@H](C)NC(=O)[C@@H]2C[C@@H](O)CN2C(=O)[C@@H](NC(=O)/C=C/C(=O)N2CCC3(CN(CCCCCCC(=O)Nc4cccc(Sc5cnc(N6CCC(C)(N)CC6)cn5)c4)C3)C2)C(C)(C)C)cc1 [Compound 116] |
| > 1000 | CC1(N)CCN(c2cnc(Sc3cccc(NC(=O)CCCCCCN4CC5(CCN(C(=O)/C=C/C(=O)NCc6ccc7c(c6)CN(C6CCC(=O)NC6=O)C7=O)C5)C4)c3)cn2)CC1 (stereo not shown) [Compound 117] |
| 100 to 1000 | Cc1ncsc1-c1ccc([C@H](C)NC(=O)[C@@H]2C[C@@H](O)CN2C(=O)[C@@H](NC(=O)c2ccc(N3CC4CCC(C3)N4CCCCCCCCC(=O)Nc3cccc(Sc4cnc(N5CCC(C)(N)CC5)cn4)c3)nn2)C(C)(C)C)cc1 [Compound 118] |

| DC50 [nM] | SMILES |
| --- | --- |
| < 100 | Cc1ncsc1-c1ccc([C@H](C)NC(=O)[C@@H]2C[C@@H](O)CN2C(=O)[C@@H](NC(=O)c2ccc(N3CCC4(CN(CCCCCOCC(=O)Nc5cccc(Sc6cnc(N7CCC8(CC7)CO[C@@H](C)[C@H]8N)cn6)c5)C4)C3)nn2)C(C)(C)C)cc1 [Compound 120] |
| < 100 | C[C@@H]1OCC2(CCN(c3cnc(Sc4cccc(NC(=O)COCCCCCN5CC6(CCN(c7ccc(C(=O)NCc8ccc9c(c8)CN(C8CCC(=O)NC8=O)C9=O)nn7)C6)C5)c4)cn3)CC2)[C@@H]1N (stereo partly shown) [Compound 121] |
| < 100 | Cc1ncsc1-c1ccc([C@H](C)NC(=O)[C@@H]2C[C@@H](O)CN2C(=O)[C@@H](NC(=O)c2ccc(N3CCC4(CN(CCCCCOCC(=O)Nc5ccc(Sc6cnc(N7CCC(N)(CF)CC7)cn6)cc5)C4)C3)nn2)C(C)(C)C)cc1 [Compound 122] |
| 100 to 1000 | NC1(CF)CCN(c2cnc(Sc3ccc(NC(=O)COCCCCCN4CC5(CCN(c6ccc(C(=O)NCc7ccc8c(c7)CN(C7CCC(=O)NC7=O)C8=O)nn6)C5)C4)cc3)cn2)CC1 (stereo not shown) [Compound 123] |
| < 100 | CC1(N)CCN(c2cnc(Sc3cccc(NC(=O)COCCCCCN4CC5(CCN(c6ccc(C(=O)NCc7ccc8c(c7)CN(C7CCC(=O)NC7=O)C8=O)nn6)C5)C4)c3)cn2)CC1 (stereo not shown) [Compound 124] |
| > 1000 | CC1(N)CCN(c2cnc(Sc3cccc(NC(=O)CCCCCCC(=O)N4CC5(CN(C(=O)/C=C/C(=O)NCc6ccc7c(c6)CN(C6CCC(=O)NC6=O)C7=O)C5)C4)c3)cn2)CC1 (stereo not shown) [Compound 125] |
| 100 to 1000 | Cc1ncsc1-c1ccc([C@H](C)NC(=O)[C@@H]2C[C@@H](O)CN2C(=O)[C@@H](NC(=O)[C@@H]2C[C@H]2C(=O)N2CCC3(CN(CCCCCCC(=O)Nc4cccc(Sc5cnc(N6CCC(C)(N)CC6)cn5)c4)C3)C2)C(C)(C)C)cc1 [Compound 126] |
| 100 to 1000 | CC1(N)CCN(c2cnc(Sc3cccc(NC(=O)CCCCCCN4CC5(CCN(C(=O)[C@@H]6C[C@H]6C(=O)NCc6ccc7c(c6)CN(C6CCC(=O)NC6=O)C7=O)C5)C4)c3)cn2)CC1 (stereo partly shown) [Compound 127] |
| < 100 | CC1(N)CCN(c2cnc(Sc3cccc(NC(=O)CCCCCCCN4CC5(CC(n6cc(C(=O)NCc7ccc8c(c7)CN(C7CCC(=O)NC7=O)C8=O)cn6)C5)C4)c3)cn2)CC1 (stereo not shown) [Compound 128] |
| > 1000 | NC1(CF)CCN(c2cnc(Sc3ccc(NC(=O)CCCCN4CC5(CCN(c6ncc(C(=O)NCc7ccc8c(c7)CN(C7CCC(=O)NC7=O)C8=O)cn6)C5)C4)cc3)cn2)CC1 (stereo not shown) [Compound 129] |
| < 100 | Cc1ncsc1-c1ccc([C@H](C)NC(=O)[C@@H]2C[C@@H](O)CN2C(=O)[C@@H](NC(=O)[C@@H]2C[C@H]2C(=O)N2CCC3(CN(C(=O)CCCCCC(=O)Nc4cccc(Sc5cnc(N6CCC(C)(N)CC6)cn5)c4)C3)C2)C(C)(C)C)cc1 [Compound 130] |
| 100 to 1000 | CC1(N)CCN(c2cnc(Sc3cccc(NC(=O)CCCCCC(=O)N4CC5(CCN(C(=O)[C@@H]6C[C@H]6C(=O)NCc6ccc7c(c6)CN(C6CCC(=O)NC6=O)C7=O)C5)C4)c3)cn2)CC1 (stereo partly shown) [Compound 131] |
| < 100 | C[C@@H]1OCC2(CCN(c3cnc(Sc4cccc(NC(=O)CCN5CC6(CCN(c7ccc(COc8cccc9c8CN(C8CCC(=O)NC8=O)C9=O)nn7)C6)C5)c4)cn3)CC2)[C@@H]1N (stereo partly shown) [Compound 132] |
| > 1000 | CC1(N)CCN(c2cnc(Sc3cccc(NC(=O)CCN4CC5(CCN(c6ccc(COc7cccc8c7CN(C7CCC(=O)NC7=O)C8=O)nn6)C5)C4)c3)cn2)CC1 (stereo not shown) [Compound 133] |
| 100 to 1000 | CC1(N)CCN(c2cnc(Sc3cccc(NC(=O)CCCCCCC(=O)N4CC5(CCN(c6ccc(C(=O)NCc7ccc8c(c7)CN(C7CCC(=O)NC7=O)C8=O)nn6)C5)C4)c3)cn2)CC1 (stereo not shown) [Compound 134] |
| < 100 | NC1(CF)CCN(c2cnc(Sc3cccc(NC(=O)CCCCCCCO[C@H]4CCN(c5ccc(C(=O)NCc6ccc7c(c6)CN(C6CCC(=O)NC6=O)C7=O)nn5)C4)c3)cn2)CC1 (stereo partly shown) [Compound 135] |
| > 1000 | CN[C@H](C)C(=O)N[C@@H](C(=O)N1C[C@@H](NC(=O)c2cnc(N3CCC4(CN(CCCCC(=O)Nc5cccc(Sc6cnc(N7CCC(N)(CF)CC7)cn6)c5)C4)C3)nc2)C[C@@H]1C(=O)Nc1c(F)cccc1F)C(C)(C)C [Compound 136] |
| > 1000 | NC1(CF)CCN(c2cnc(Sc3cccc(NC(=O)CCCCN4CC5(CCN(c6ccc(C(=O)NCc7ccc8c(c7)CN(C7CCC(=O)NC7=O)C8=O)nn6)C5)C4)c3)cn2)CC1 (stereo not shown) [Compound 137] |
